# Experimental data reported in publication PMC3812394 (Biochemistry, 2013).
# Biological target: T1, Chloroperoxidase (CPO) (Leptoxyphium fumago, UniProt P04963)
# T1 sequence (P04963 21-319): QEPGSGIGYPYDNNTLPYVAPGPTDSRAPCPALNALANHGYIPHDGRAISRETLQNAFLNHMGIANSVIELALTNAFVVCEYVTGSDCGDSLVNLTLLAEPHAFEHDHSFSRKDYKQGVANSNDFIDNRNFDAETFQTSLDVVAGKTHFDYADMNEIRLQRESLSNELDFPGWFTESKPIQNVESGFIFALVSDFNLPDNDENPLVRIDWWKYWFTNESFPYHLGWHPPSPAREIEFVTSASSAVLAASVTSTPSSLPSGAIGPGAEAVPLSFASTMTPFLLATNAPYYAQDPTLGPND
# Experiment: paramagnetic NMR T1 relaxation titration with purified CPO
# Format: binding
structure (smiles),measurement,value
c1ccc2[nH]ccc2c1 [indole],Kd,~21 mM
